Values joined by “and” are separate entries in the source; they are usually repeats but may differ in a detail not shown here. Identical values can stand only once. Like-named read-outs stand apart in the source and are kept apart here.
Tests used:
[1] = tested on: HG-3 cells; experiment: LDH cytotoxicity assay (CytoTox 96); type: cell-based; details: 24 h
Excerpt: (§1) The lactate dehydrogenase (LDH) assay is used to assess the membrane integrity of cells as a function of the cytoplasmic LDH released. The loss of cell membrane integrity (due to cytotoxic insult) is detectable through LDH release into the cell growth medium. The assay is initiated via the reduction in cellular co-factor NAD^+ to NADH catalyzed via the LDH enzyme. Newly formed NADH catalyzes the acidic reduction in iodonitrotetrazolium chloride (INT) to the highly colored formazan (red) (mediated via the diaphorase enzyme). […] At the 10-µM treatment concentration, mild to moderate cytotoxicity (19–47%) was observed. […] Cytotoxicity remained low to mild at 1 µM (4–18%) with 23a displaying the lowest LDH release (4%).
(§2) Following the treatment of the HG-3 and PGA-1 cells at 10 µM for 24 hr, the amount of LDH released was determined using an LDH assay kit from Promega (G1780). Cell lysis solution = 100% cell lysis and LDH release). Data are presented as % cell death at a concentration of 10 µM. Cells were treated with ethanoanthracene compounds 20a, 20f, 23a and 25n (1 µM and 10 µM) for 24 h. Values are shown as the mean of three independent experiments.
(§3) The cytotoxicity of the selected compounds 20a, 20f, 23a and 25n was determined using the CytoTox 96 non-radioactive cytotoxicity assay (Promega Corporation; 2800 Woods Hollow Road, Madison, WI, USA). CLL cells HG-3 and PGA-1 were incubated for 24 h and then treated with the selected compounds 20a, 20f, 23a and 25n at 10-µM and 1-µM concentrations, following the protocol outlined above in the cell viability assay. After 24 h, the lysis solution (10×) (20 µL) was added, and the cells were incubated for a further 1 h to ensure complete cell death. Supernatant (50 µL) was removed from each well and transferred to a clean 96-well plate. “Substrate mix” (50 µL) was added, and the plate was stored in the dark at 20 °C for 30 min. “Stop solution” (50 µL) was added to each well, and the absorbance at 490 nm was recorded using a Dynatech MR5000 plate reader; the % cell death was determined relative to the control cell lysis solution.

[2] = tested on: PGA-1 cells; experiment: LDH cytotoxicity assay (CytoTox 96); type: cell-based; details: PGA-1, 10 µM, 24 h
Excerpt: as §1, §2, §3

[3] = tested on: HG-3 cells; experiment: Annexin V/PI apoptosis assay (FACS); type: cell-based, human
Experimental: (§4) The pro-apoptotic effects of selected nitrovinylethanoanthracene compounds 20a and 20f and anthracene chalcones 23a and 25n in HG-3 cells and PGA-1 cells was then investigated using FITC (fluorescein isothiocyanate), Annexin V/PI (propidium iodide) and FACS (fluorescence-activated cell sorting) analysis to characterize the mode of cellular death induced. Apoptosis was assessed as % total apoptosis (total of early (Q3) and late (Q2) apoptosis).
(§5) CLL cells PGA-1 and HG-3 (1 × 10^6 cells/mL) were treated at 37 °C with either the vehicle (1% (v/v) DMSO) or the ethanoanthracene compounds 20a, 20f, 23a and 25n (10 µM, 5 µM and 1 µM) for 48 h, following the protocol previously described. The cells were then harvested via centrifugation at 400× g in a temperature-controlled Sorvall centrifuge. The cells were rinsed with Ca^2+ Annexin-V-binding buffer (0.1 M HEPES, pH 7.4; 0.14 M NaCl; 25 mM CaCl2, 0.5 mL). The samples were resuspended in FITC Annexin V (diluted 1:33 in Ca^2+ Annexin V-binding buffer, 50 µL) and incubated for 10 min (on ice and protected from light). The samples were washed with Annexin-V-binding buffer and resuspended in a PI solution (0.5 µg/mL, 500 µL) and analyzed within 1 h using a BD Accuri C6 flow cytometer counting 10,000 cells using the FlowJo software Version 10 (FlowJo LLC, Ashland, OR, USA).

[4] = tested on: PGA-1 cells; experiment: Annexin V/PI apoptosis assay (FACS); type: cell-based, human
Experimental: as §4, §5

[5] = tested on: HG-3 cells; experiment: alamarBlue cell viability assay; details: for IC50 / viability at 10 µM / viability at 1 µM: HG-3, 24 h; for IC50: read-out: HG-3 IC50; for viability at 1 µM: read-out: cell viability, HG-3, 1 µM, 24 h, vehicle = 100%
[6] = tested on: PGA-1 cells; experiment: alamarBlue cell viability assay; details: for IC50: read-out: PGA-1 IC50; for viability at 10 µM: read-out: cell viability
[7] = tested on: CCRF-CEM; experiment: NCI-60 five-dose assay; type: cell-based, human
[8] = tested on: HL-60(TB); experiment: NCI-60 five-dose assay; type: cell-based, human; details: HL-60(TB)
[9] = tested on: K-562; experiment: NCI-60 five-dose assay; type: cell-based, human; details: K-562
[10] = tested on: MOLT-4; experiment: NCI-60 five-dose assay; type: cell-based, human; details: MOLT-4
[11] = tested on: RPMI-8226; experiment: NCI-60 five-dose assay; type: cell-based, human; details: RPMI-8226
[12] = tested on: SR; experiment: NCI-60 five-dose assay; type: cell-based, human
[13] = tested on: NCI 60 cancer cell line panel; experiment: NCI-60 five-dose assay, full-panel means; type: cell-based
Experimental: (§6) A number of our most promising compounds identified through preliminary cell viability testing (23c, 23d, 23f, 23h, 23l, 23m, 23n, 23o, 24f, 24l, 25n and 26n) were selected for NCI drug screening in the 60-cell-line panel. The panel includes nine subcategories based on cancer tissue types, which include leukemia, ovarian, central nervous system, breast, lung, prostate, skin, renal and colon cancer. The compounds were initially assessed in a one-dose assay at a fixed treatment concentration of 10 µM. The compounds selected for further investigation were progressed to a five-dose assay across the concentration ranges of 0.01, 0.1, 1, 10 and 100 µM [72]. The endpoints assessed in the screening protocol were GI50, TGI and LC50 [72].

[14] = tested on: leukemia cell panel; experiment: NCI-60 five-dose assay, leukemia cell panel mean; type: cell-based, human; details: mean across the six leukemia cell lines
[15] = tested on: melanoma cell lines; experiment: NCI-60 five-dose assay, melanoma cell lines; type: cell-based, human; details: range over melanoma cell lines
Experimental: as §6

[16] = tested on: HG-3 and PGA-1 cell lines; experiment: alamarBlue cell viability assay, mean of both CLL cell lines; type: cell-based, human; details: mean of HG-3 and PGA-1
[17] = HPLC stability study in phosphate buffers; type: physicochemical
Summary of the method: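 Compound stock (5 mg in 10 mL 80:20 acetonitrile–water) added to phosphate buffers at pH 4, 7.4 and 9 and held at 37 °C. Sampled over 24 h (0 min to 24 h) and analysed by C18 HPLC with UV detection at 254 nm; single experiments.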

[18] = tested on: HG-3 cells; details: 10 µM
[19] = Homo sapiens, read-out: cell viability, HG-3, 10 µM, 24 h, vehicle = 100%

O=C1C2C3c4ccccc4C(C=C[N+](=O)[O-])(c4ccccc43)C2C(=O)N1CCCCCCN1C(=O)C2C3c4ccccc4C(C=C[N+](=O)[O-])(c4ccccc43)C2C1=O (stereo not shown) [Compound 20f]
LDH release (cytotoxicity, % cell death) ([1]; HG-3, 1 µM): 12%
LDH release (cytotoxicity, % cell death) ([1]; HG-3, 10 µM, lysis solution = 100%): 19%
LDH release (cytotoxicity, % cell death) [2]: 19%
total apoptosis (early Q3 + late Q2) ([3]; HG-3, 1 µM): 82%
total apoptosis (early Q3 + late Q2) ([3]; HG-3, 10 µM): 82–95% and 82%
total apoptosis (early Q3 + late Q2) ([4]; PGA-1, 1 µM): 76%
total apoptosis (early Q3 + late Q2) ([4]; PGA-1, 10 µM): 87–97% and 88%
potency relative to fludarabine control ([5]; HG-3, IC50 ratio): 165 fold
IC50 ([5]; Homo sapiens): 170 nM
viability at 10 µM ([5]; Homo sapiens, read-out: cell viability): 14 to 43%
IC50 ([6]; Homo sapiens, 24 h): 350 nM
viability at 10 µM ([6]; Homo sapiens, 24 h): 17%
potency relative to fludarabine control ([6]; PGA-1, IC50 ratio): 91 fold

COc1cc(C(=O)/C=C/c2c3ccccc3cc3ccccc23)cc(OC)c1OC [Compound 21k, (E)-3-(Anthracen-9-yl)-1-(3,4,5-trimethoxyphenyl)prop-2-en-1-one]
melting point: 160 to 164 °C
viability at 1 µM ([5]; Homo sapiens): 50 to 61%
viability at 10 µM [5, 19]: 37 to 54%
viability at 10 µM ([6]; Homo sapiens, 24 h): 43%

O=C(/C=C/c1c2ccccc2cc2ccccc12)c1ccncc1 [Compound 21m, (E)-3-(anthracen-9-yl)-1-(pyridin-4-yl)prop-2-en-1-one]
melting point: 170 to 173 °C
viability at 1 µM ([5]; Homo sapiens): 50 to 61%
viability at 10 µM [5, 19]: 37 to 54%
viability at 10 µM ([6]; Homo sapiens, 24 h): 43%

O=C(/C=C/C12c3ccccc3C(c3ccccc31)C1C(=O)NC(=O)C12)c1ccccn1 (stereo not shown) [Compound 23n]
GI50 [7]: 1440 nM
GI50 [8]: 1020 nM
GI50 [9]: 1370 nM
GI50 [10]: 2110 nM
GI50 [11]: 1220 nM
GI50 [12]: 780 nM
CC50 [13]: 14800 nM
Mean TGI (MID TGI, total growth inhibition) ([13]; mean over NCI 60 cell line panel): 4570 nM
GI50 ([13]; mean over NCI 60 cell line panel, read-out: Mean GI50 (MID GI50, full-panel mean-graph mid-point)): 1660 nM
GI50 [14]: 1320 nM
GI50 [15]: 1120 to 2140 nM
IC50 [16]: 1940 nM
Half-life pH 4 ([17]; pH 4 buffer, 37 °C): 19 h
% remaining 24 h pH 4 ([17]; pH 4 buffer, 37 °C, 24 h, HPLC): 39% and 38.86%
Half-life pH 7.4 ([17]; pH 7.4 buffer, 37 °C): > 24 h
% remaining 24 h pH 7.4 ([17]; pH 7.4 buffer, 37 °C, 24 h, HPLC): 70% and 70.29%
decrease in compound concentration over 24 h ([17]; pH 9.0): 11%
Half-life pH 9 ([17]; pH 9 buffer, 37 °C): > 24 h
% remaining 24 h pH 9 ([17]; pH 9 buffer, 37 °C, 24 h, HPLC): 89% and 88.59%
cell viability [18]: 2%
IC50 [5]: 2390 nM
IC50 ([6]; PGA-1, 24 h): 1480 nM

COC(=O)C1=C(C(=O)OC)C2(C=CC(=O)c3ccccc3)c3ccccc3C1c1ccccc12 [Compound 27, Dimethyl (E)-9-(3-oxo-3-phenylprop-1-en-1-yl)-9,10-dihydro-9,10-ethenoanthracene-11,12-dicarboxylate]
melting point: > 250 °C
viability at 10 µM [5, 19]: 50%
viability at 10 µM ([6]; Homo sapiens, 24 h): 58%

From publication PMC11359702, “Synthesis and Biochemical Evaluation of Ethanoanthracenes and Related Compounds: Antiproliferative and Pro-Apoptotic Effects in Chronic Lymphocytic Leukemia (CLL)” (Pharmaceuticals, 2024)
